# pIC50: −log10 of the molar value.
# Tests used:
# [1] = target: T1, vinylthioether-linked HUWE1^HECT-Ub complex (Homo sapiens, UniProt Q7Z6Z7); experiment: Differential scanning fluorimetry (DSF) with HUWE1^HECT~Ub proxy; format: binding; settings: 10 μM protein
# T1 construct: The preparation of the vinylthioether-linked HUWE1^HECT-Ub complex was also previously described; made in house; host or cells: bacteria (components)
# Description: DSF was performed in 25 mM HEPES (pH 7.5), 100 mM NaCl, 1 mM TCEP and 0.4% (v/v) DMSO, using a CFX96 Touch Real-Time PCR Detection System (BioRad). 10 μM HUWE1^HECT and HUWE1^HECT-Ub, respectively, at a sample volume of 25 μL were denatured by a linear 25–95 °C gradient over 120 min in a presence of 10 x SYPRO Orange (Invitrogen). Tm-values were determined as the first derivative of the fluorescence curves, using CFX Maestro™ v.1.1 (Bio-Rad). Melting curves were plotted as normalized -d(fluorescence)/dt with Prism v.9.3.1 (GraphPad).
# [2] = target: T2, HUWE1^HECT (Homo sapiens, UniProt Q7Z6Z7); experiment: HDX-MS of HUWE1^HECT with inhibitors; format: binding; settings: 10-fold molar excess of inhibitor
# T2 construct: the isolated HECT domain of HUWE1 (HUWE1^HECT); made in house
# T2 sequence (Q7Z6Z7 4038-4374 limits assumed): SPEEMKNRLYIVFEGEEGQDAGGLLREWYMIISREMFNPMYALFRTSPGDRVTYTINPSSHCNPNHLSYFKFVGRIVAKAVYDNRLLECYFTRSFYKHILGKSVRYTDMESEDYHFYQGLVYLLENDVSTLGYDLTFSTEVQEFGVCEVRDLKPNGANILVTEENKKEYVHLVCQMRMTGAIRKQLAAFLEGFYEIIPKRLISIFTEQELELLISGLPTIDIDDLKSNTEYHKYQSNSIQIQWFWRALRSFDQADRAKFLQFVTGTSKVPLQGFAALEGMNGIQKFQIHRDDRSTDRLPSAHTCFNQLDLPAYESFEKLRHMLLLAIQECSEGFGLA
# Description: Two experiments were performed: 50 μM HUWE1^HECT (1) or HUWE1^HECT-Ub conjugate (2) were incubated with 500 μM of BI8626 or BI8622 for 1 h on ice prior HDX-MS. Individual HDX reactions were generated with a 2-arm autosampler (LEAP Technologies) by mixing 6.5 μL sample with 58.5 μL of HDX buffer (20 mM HEPES pH 8.0, 150 mM NaCl, 5 mM DTT) prepared with 99.9% D2O, incubation at 25 °C for various times, before quenching by mixing 55 μL with an equal volume of 400 mM KH2PO4/H3PO4 (pH 2.2) and 2 M guanidine-HCl (precooled at 1 °C). Non-deuterated samples were generated analogously by 10-fold dilution with H2O-based buffer. […] For each protein state and time-point, three individual HDX reactions were measured.
# Peptide identification and HDX analysis was performed with ProteinLynx Global SERVER v.3.0.1 (PLGS; Waters) and DynamX v.3.0 (Waters), as described previously. […] Only peptides with an intensity >10,000 counts, ≤ 30 residues, ≥ 2 products with ≥ 0.05 products/residue, ≤ 25 ppm mass error and retention time tolerance of 0.5 min were analysed. […] The maximal deuterium uptake of a given peptide was calculated by the number of residues minus one for the N-terminal residue and minus the number of prolines. […]
# [3] = system: other HECT domains; design: method as in PMID 25253726; settings: in vitro; cited from earlier work
# [4] = system: HUWE1 substrates, such as MCL1; design: method as in PMID 25253726; settings: MCL1 upon DNA damage induction; cited from earlier work
# [5] = design: method as in PMID 25253726; settings: cited from earlier work
SMILES,Interaction with HUWE1^HECT-Ub by DSF [1],Binding to HUWE1^HECT by HDX-MS [2],pIC50 [3],Stabilization of HUWE1 substrates [4],Pharmacokinetic properties [5]
Cc1c(C(=O)Nc2ccc(CN)cc2)ncnc1N1CCC(C#N)(c2ccccc2)CC1 [BI8622],no interactions between HUWE1^HECT-Ub and the inhibitors could be detected,did not provide evidence of binding,< 4.30,"stabilize individual HUWE1 substrates under certain conditions, such as MCL1 upon DNA damage induction",do not allow for in vivo applications
NCc1cccc(CNc2ncnc3c(N4CCN(Cc5ccccc5)CC4)ncnc23)c1 [BI8626],no interactions between HUWE1^HECT-Ub and the inhibitors could be detected,did not provide evidence of binding,< 4.30,"stabilize individual HUWE1 substrates under certain conditions, such as MCL1 upon DNA damage induction",do not allow for in vivo applications

# — publication PMC12405493, “Selective ubiquitination of drug-like small molecules by the ubiquitin ligase HUWE1” (Nature Communications, 2025)
